Drawing on US20140011799A1 (Bristol-Myers Squibb Company, priority 2012, published 2014), this text covers IC50 for 26 compounds.

A value given as a limit tells only on which side of the number the result lay.

By IC50 is commonly meant the concentration at which inhibition is half-maximal.

The assay deals with T1, Endothelial lipase (EL) (Homo sapiens, UniProt Q9Y5X9).
T1 construct: HT-1080 cells that were transformed using RAGE technology (Athersys) to overexpress endogenous EL; endogenous in cells; conditioned medium used
T1 sequence (Q9Y5X9 21-500): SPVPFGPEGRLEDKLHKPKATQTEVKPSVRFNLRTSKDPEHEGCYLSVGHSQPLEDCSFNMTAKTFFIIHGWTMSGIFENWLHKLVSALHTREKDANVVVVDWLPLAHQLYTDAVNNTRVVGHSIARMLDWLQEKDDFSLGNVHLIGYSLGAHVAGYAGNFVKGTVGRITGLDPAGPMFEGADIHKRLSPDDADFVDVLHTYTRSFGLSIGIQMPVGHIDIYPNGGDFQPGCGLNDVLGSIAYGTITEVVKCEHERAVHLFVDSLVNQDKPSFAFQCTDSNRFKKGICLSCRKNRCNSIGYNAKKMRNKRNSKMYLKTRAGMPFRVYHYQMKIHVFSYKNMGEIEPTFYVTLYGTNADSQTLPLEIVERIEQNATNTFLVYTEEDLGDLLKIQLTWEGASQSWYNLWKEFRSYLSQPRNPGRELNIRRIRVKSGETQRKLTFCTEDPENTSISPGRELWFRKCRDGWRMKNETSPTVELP
Nature of the assay: Endothelial lipase (EL) enzymatic assay, fluorescent substrate A10070 in DMPG vesicles. The note with it: EL from conditioned media of HT-1080 cells; compound preincubated 30 min at 37° C; read-out: EL IC50. It counts as biochemical. A digest of the protocol: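 Compounds were preincubated with enzyme for 30 min at 37° C before FRET-substrate vesicles (A10070 in DMPG, 0.11 mole fraction) were added. Reaction rates were obtained from the 300–900 sec slope of fluorescence at 490/530 nm.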
With `NS(=O)(=O)NCc1nnc(C(c2nc3ccc(-c4ccccc4)cc3s2)S(=O)(=O)CC2CC2)o1` (centres unmarked) [Example 61, N-[(5-{6-phenyl-1,3-benzothiazol-2-yl [(cyclopropylmethyl)sulfonyl]methyl}-1,3,4-oxadiazol-2-yl)methyl]sulfuric diamide], the IC50 is less than 10 nM.

`NS(=O)(=O)NCc1nnc(C(c2nc3ccc(-c4ccccc4)cc3s2)S(=O)(=O)Cc2cccc(Br)c2)o1` (centres unmarked) [Example 57]: the IC50 was less than 10 nM.

Regarding `CC1(Cc2nnc(C(c3nc4ccc(-c5ccc(F)nc5)cc4s3)S(=O)(=O)Cc3ccccc3)o2)NC(=O)NC1=O` (single isomer, unassigned; isomer b) [Example 7, 5-((5-((benzylsulfonyl)(6-(6-fluoropyridin-3-yl)benzo[d]thiazol-2-yl)methyl)-1,3,4-oxadiazol-2-yl)methyl)-5-methylimidazolidine-2,4-dione (Isomer B)], the IC50 stood at 188 nM.

Regarding `CC1(Cc2nnc(C(c3nc4ccc(-c5ccc(C(=O)N6CCOCC6)cc5)cc4s3)S(=O)(=O)Cc3ccccc3)o2)NC(=O)NC1=O` (centres unmarked) [Example 5, 5-((5-((benzylsulfonyl)(6-(4-(morpholine-4-carbonyl)phenyl)benzo[d]thiazol-2-yl)methyl)-1,3,4-oxadiazol-2-yl)methyl)-5-methylimidazolidine-2,4-dione], the IC50 turned out to be 30 nM.

Regarding `NS(=O)(=O)NCc1nnc(C(c2nc3ccc(-c4ccc(Cl)cc4)cc3s2)S(=O)(=O)Cc2ccccc2)o1` (centres unmarked) [Example 126, N-((5-((benzylsulfonyl)(6-(4-chlorophenyl)-1,3-benzothiazol-2-yl)methyl)-1,3,4-oxadiazol-2-yl)methyl) sulfamide], the IC50 is less than 10 nM.

On to `CC1(Cc2nnc(C(c3nc4ccc(-c5ccc(F)nc5)cc4s3)S(=O)(=O)Cc3ccccc3)o2)SC(=O)NC1=O` (single isomer, unassigned; isomer a) [Example 1, 5-((5-((Benzylsulfonyl)(6-(6-fluoropyridin-3-yl)benzo[d]thiazol-2-yl)methyl)-1,3,4-oxadiazol-2-yl)methyl)-5-methylthiazolidine-2,4-dione (Isomer A)], for which the 50% inhibitory concentration (IC50) was less than 10 nM.

For `CC(c1nnc(CNS(N)(=O)=O)o1)(c1nc2ccc(-c3ccccc3)cc2s1)S(C)(=O)=O` (single isomer, unassigned) [Reference 1, Isomer B, N-((5-(1-(Methylsulfonyl)-1-(6-phenyl-1,3-benzothiazol-2-yl)ethyl)-1,3,4-oxadiazol-2-yl)methyl)sulfamide, reference compound], the IC50 is 5200 nM.

As for `NS(=O)(=O)NCc1nnc(C(c2nc3ccc(-c4ccccc4)cc3s2)S(=O)(=O)Cc2cccc(Cl)c2)o1` (centres unmarked) [Example 73, N-((5-(((3-chlorobenzyl)sulfonyl)(6-phenyl-1,3-benzothiazol-2-yl)methyl)-1,3,4-oxadiazol-2-yl)methyl)sulfamide], the IC50 is less than 10 nM.

Regarding `CC(C)C(=O)NCc1nnc(C(c2nc3ccc(-c4ccccc4)cc3s2)S(C)(=O)=O)o1` (centres unmarked) [Example 88, N-((5-((Methylsulfonyl)(6-phenylbenzo[d]thiazol-2-yl)methyl)-1,3,4-oxadiazol-2-yl)methyl)isobutyramide], the IC50 came to 195 nM.

In the case of `Cc1cc2nc(C(c3nnc(CC4SC(=O)NC4=O)o3)S(C)(=O)=O)sc2cc1-c1ccccc1` (centres unmarked) [Example 96, 5-((5-((5-methyl-6-phenylbenzo[d]thiazol-2-yl)(methyl-sulfonyl)methyl)-1,3,4-oxadiazol-2-yl)methyl)thiazolidine-2,4-dione], the IC50 was less than 10 nM.

As to `NS(=O)(=O)NCc1nnc(C(c2nc3ccc(-c4ccc(F)nc4)cc3s2)S(=O)(=O)Cc2ccc(F)nc2)o1` (centres unmarked) [Example 77, N-({5-[6-(6-fluoro-3-pyridinyl)-1,3-benzothiazol-2-yl({[6-fluoro-pyridin-3-yl]methyl}sulfonyl)methyl]-1,3,4-oxadiazol-2-yl}methyl)sulfuric diamide], the IC50 came out at 18 nM.

As for `CCCS(=O)(=O)C(c1nnc(CNS(N)(=O)=O)o1)c1nc2ccc(-c3ccccc3)cc2s1` (centres unmarked) [Example 66, N-({5-[(propylsulfonyl) (6-phenyl-1,3-benzothiazol-2-yl)methyl]-1,3,4-oxadiazol-2-yl}methyl) sulfuric diamide], the IC50 is less than 10 nM.

As to `CC(C)CS(=O)(=O)C(c1nnc(CNS(N)(=O)=O)o1)c1nc2ccc(-c3ccccc3)cc2s1` (centres unmarked) [Example 68, N-[(5-{6-phenyl-1,3-benzothiazol-2-yl[(2-methylpropyl)sulfonyl]methyl}-1,3,4-oxadiazol-2-yl)methyl]sulfuric diamide], the IC50 was less than 10 nM.

Consider `CC(O)(c1nnc(CNS(N)(=O)=O)o1)c1nc2ccc(-c3ccc(F)nc3)cc2s1` (centres unmarked) [Reference 4, N-((5-(1-(6-(6-Fluoro-3-pyridinyl)-1,3-benzothiazol-2-yl)-1-hydroxyethyl)-1,3,4-oxadiazol-2-yl)methyl)sulfamide, reference compound], for which the IC50 amounted to 14900 nM.

`CS(=O)(=O)C(c1nnc(C[C@@H]2NS(=O)(=O)NC2=O)o1)c1nc2ccc(-c3ccccc3)cc2s1` (stereo partly drawn) [Example 45, (4S)-4-((5-((Methylsulfonyl)(6-phenylbenzo[d]thiazol-2-yl)methyl)-1,3,4-oxadiazol-2-yl)methyl)-1,2,5-thiadiazolidin-3-one 1,1-dioxide]: the IC50 was less than 10 nM.

On to `NS(=O)(=O)Cc1nnc(C(c2nc3c(F)cc(-c4ccccc4)cc3s2)S(=O)(=O)Cc2ccc(C(F)(F)F)cc2)o1` (centres unmarked) [Example 90, (5-((4-Fluoro-6-phenylbenzo[d]thiazol-2-yl)((4-(trifluoromethyl)benzyl)sulfonyl)methyl)-1,3,4-oxadiazol-2-yl)methanesulfonamide], for which the IC50 was less than 10 nM.

In the case of `CS(=O)(=O)C(c1nnc(CNS(N)(=O)=O)o1)c1nc2ccc(-c3ccc(C(=O)NCC(F)(F)F)cc3)cc2s1` (centres unmarked) [Example 78, 4-(2-((methylsulfonyl) (5-((sulfamoylamino)methyl)-1,3,4-oxadiazol-2-yl)methyl)benzo[d]thiazol-6-yl)-N-(2,2,2-trifluoroethyl) benzamide], the IC50 is less than 10 nM.

In the case of `NS(=O)(=O)NCc1nnc(C(c2nc3ccc(-c4ccccc4)cc3s2)S(=O)(=O)CCCC(F)(F)F)o1` (centres unmarked) [Example 63, N-[(5-{(6-phenyl-1,3-benzothiazol-2-yl) [(4,4,4-trifluorobutyl)sulfonyl]methyl}-1,3,4-oxadiazol-2-yl)methyl] sulfuric diamide], the IC50 was less than 10 nM.

In the case of `NS(=O)(=O)NCc1nnc(C(c2nc3ccc(-c4ccccc4)cc3s2)S(=O)(=O)Cc2ccc(C(F)(F)F)cc2)o1` (centres unmarked) [Example 48, N-((5-((6-phenyl-1,3-benzothiazol-2-yl)((4-(trifluoromethyl)benzyl)sulfonyl)methyl)-1,3,4-oxadiazol-2-yl)methyl)sulfamide], the IC50 is less than 10 nM.

For `CC(C)(C)OC(=O)N1CC(c2nnc(C(c3nc4ccc(-c5ccccc5)cc4s3)S(=O)(=O)Cc3ccccc3)o2)C1` (centres unmarked) [Example 33, tert-butyl 3-(5-((benzylsulfonyl) (6-phenylbenzo[d]thiazol-2-yl)methyl)-1,3,4-oxadiazol-2-yl)azetidine-1-carboxylate], the IC50 came to 14 nM.

As for `CS(=O)(=O)C(c1nnc(CS(=O)(=O)O)o1)c1nc2ccc(-c3ccccc3)cc2s1` (centres unmarked) [Example 28, (5-((methylsulfonyl) (6-phenyl-1,3-benzothiazol-2-yl)methyl)-1,3,4-oxadiazol-2-yl) methanesulfonic acid], the IC50 was less than 10 nM.

As to `CN(C)C(=O)CCc1nnc(C(c2nc3ccc(-c4ccccc4)cc3s2)S(=O)(=O)Cc2ccccc2)o1` (centres unmarked) [Example 41, 3-(5-((benzylsulfonyl)(6-phenylbenzo[d]thiazol-2-yl)methyl)-1,3,4-oxadiazol-2-yl)-N,N-dimethylpropanamide], the IC50 stood at 58 nM.

Consider `NS(=O)(=O)NCc1nnc(C(c2nc3ccc(-c4ccccc4)cc3s2)S(=O)(=O)C2CCOCC2)o1` (centres unmarked) [Example 53, N-({5-[6-phenyl-1,3-benzothiazol-2-yl (tetrahydro-2H-pyran-4-ylsulfonyl)methyl]-1,3,4-oxadiazol-2-yl}methyl) sulfuric diamide], for which the IC50 is less than 10 nM.

Take `Cc1cc2nc(C(c3nnc(CC4SC(=O)NC4=O)o3)S(=O)(=O)Cc3ccccc3)sc2cc1-c1ccccc1` (centres unmarked) [Example 97, 5-((5-((benzylsulfonyl) (5-methyl-6-phenyl-benzo[d]thiazol-2-yl)methyl)-1,3,4-oxadiazol-2-yl)methyl)thiazolidine-2,4-dione]: the IC50 is less than 10 nM.

On to `CC1(Cc2nnc(C(c3nc4ccc(-c5ccc(F)nc5)cc4s3)S(=O)(=O)Cc3ccccc3)o2)SC(=O)NC1=O` (single isomer, unassigned; isomer b) [Example 4, 5-((5-((benzylsulfonyl)(6-(6-fluoropyridin-3-yl)benzo[d]thiazol-2-yl)methyl)-1,3,4-oxadiazol-2-yl)methyl)-5-methylthiazolidine-2,4-dione (Isomer B)], for which the IC50 is less than 10 nM.

Consider `CN(Cc1nnc(C(c2nc3ccc(-c4ccccc4)cc3s2)S(=O)(=O)Cc2ccccc2)o1)S(N)(=O)=O` (centres unmarked) [Example 81], for which the IC50 came to 32 nM.
